Results reported in PubChem BioAssay AID256 (DTP/NCI, 2004).
Values joined by “and” are separate entries in the source; they are usually repeats but may differ in a detail not shown here. Equal entries are not always repeated. Inconclusive results and toxic doses are left out.

Tested on: CD2F1 mice, L1210 leukemia ip, survival T/C
Test: NCI In Vivo Anticancer Drug Screen. Data for tumor model L1210 Leukemia (intraperitoneal) in CD2F1 (CDF1) mice
Details: higher = longer survival
Outline: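 Each value reflects a quotient of treated over vehicle control outcomes in mice with a transplanted tumor.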

[1] = endpoint: mean survival time, dose: 100.0 mg/kg/injection, schedule: Q04DX003 (ip), vehicle: other
[2] = endpoint: median survival time, dose: 6.0 mg/kg/injection, schedule: Q01DX009 (ip), vehicle: saline with Tween-80
[3] = endpoint: median survival time, dose: 25.0 mg/kg/injection, schedule: Q01DX009 (ip), vehicle: saline with Tween-80
[4] = endpoint: median survival time, dose: 100.0 mg/kg/injection, schedule: Q01DX009 (ip), vehicle: saline with Tween-80
[5] = endpoint: mean survival time, dose: 100.0 mg/kg/injection, schedule: Q04DX002 (ip), vehicle: saline with Tween-80
[6] = endpoint: mean survival time, dose: 100.0 mg/kg/injection, schedule: Q01DX009 (ip), vehicle: saline with Tween-80
[7] = endpoint: mean survival time, dose: 100.0 mg/kg/injection, schedule: Q04DX003 (ip), vehicle: saline with Tween-80
[8] = endpoint: mean survival time, dose: 200.0 mg/kg/injection, schedule: Q01DX009 (ip), vehicle: saline with Tween-80
[9] = endpoint: mean survival time, dose: 200.0 mg/kg/injection, schedule: Q04DX003 (ip), vehicle: saline with Tween-80
[10] = endpoint: mean survival time, dose: 400.0 mg/kg/injection, schedule: Q01DX009 (ip), vehicle: saline with Tween-80
[11] = endpoint: mean survival time, dose: 400.0 mg/kg/injection, schedule: Q04DX003 (ip), vehicle: saline with Tween-80
[12] = endpoint: mean survival time, dose: 50.0 mg/kg/injection, schedule: Q01DX009 (ip), vehicle: saline with Tween-80

NNC(=O)COc1ccccc1
T/C (endpoint: mean survival time, dose: 25.0 mg/kg/injection, schedule: Q04DX003 (ip), vehicle: saline): 101 % of control | T/C (endpoint: mean survival time, dose: 50.0 mg/kg/injection, schedule: Q04DX003 (ip), vehicle: saline): 101 % of control | T/C (endpoint: mean survival time, dose: 100.0 mg/kg/injection, schedule: Q04DX003 (ip), vehicle: saline): 103 % of control

c1ccc(N/N=C(/CC/C(=N\Nc2ccccc2)c2ccccc2)c2ccccc2)cc1
T/C (endpoint: mean survival time, dose: 100.0 mg/kg/injection, schedule: Q01DX001 (ip), vehicle: saline with Tween-80): 96 % of control | T/C (endpoint: mean survival time, dose: 200.0 mg/kg/injection, schedule: Q01DX001 (ip), vehicle: saline with Tween-80): 96 % of control | T/C (endpoint: mean survival time, dose: 400.0 mg/kg/injection, schedule: Q01DX001 (ip), vehicle: saline with Tween-80): 93 % of control

O=C(O)c1ccc([N+](=O)[O-])cc1P(=O)(O)O
T/C (endpoint: mean survival time, dose: 18.75 mg/kg/injection, schedule: Q01DX009 (ip), vehicle: saline): 98 % of control | T/C (endpoint: mean survival time, dose: 37.5 mg/kg/injection, schedule: Q01DX009 (ip), vehicle: saline): 98 % of control | T/C (endpoint: mean survival time, dose: 75.0 mg/kg/injection, schedule: Q01DX009 (ip), vehicle: saline): 95 % of control

Cc1nc(N)[nH]c(=O)c1[N+](=O)[O-]
T/C [1]: 108 % of control | T/C (endpoint: mean survival time, dose: 200.0 mg/kg/injection, schedule: Q04DX003 (ip), vehicle: other): 113 % of control

COc1cc2c[n+](C)c3c(c2cc1OC)Cc1cc2c(cc1-3)OCO2
T/C [2]: 122 % of control | T/C [3]: 152 % of control and 162 % of control | T/C (endpoint: median survival time, dose: 50.0 mg/kg/injection, schedule: Q01DX009 (ip), vehicle: saline with Tween-80): 164 % of control and 168 % of control | T/C [4]: 94 % of control

Cc1cc(=O)n2c3c(c4c(cc13)c(CN(C)C)cc(=O)n4C)OC2
T/C [2]: 110 % of control | T/C (endpoint: median survival time, dose: 12.0 mg/kg/injection, schedule: Q01DX009 (ip), vehicle: saline with Tween-80): 101 % of control | T/C (endpoint: median survival time, dose: 12.5 mg/kg/injection, schedule: Q01DX009 (ip), vehicle: saline with Tween-80): 100 % of control | T/C [3]: 119 % of control and 110 % of control | T/C [4]: 97 % of control

CC(C)(C)c1ccc(-n2cnc3c(=O)[nH]c(N)nc32)cc1
T/C (endpoint: mean survival time, dose: 50.0 mg/kg/injection, schedule: Q04DX002 (ip), vehicle: saline with Tween-80): 86 % of control | T/C [5]: 90 % of control

Cc1c(Cl)cccc1NS(=O)(=O)c1ccccc1
T/C [6]: 108 % of control | T/C [7]: 92 % of control | T/C [8]: 103 % of control | T/C [9]: 99 % of control | T/C [10]: 103 % of control | T/C [11]: 99 % of control

CC(C)(CCC#N)C(=O)c1ccccc1
T/C [5]: 94 % of control | T/C (endpoint: mean survival time, dose: 200.0 mg/kg/injection, schedule: Q04DX002 (ip), vehicle: saline with Tween-80): 102 % of control

O=C(C=C(C(F)(F)F)C(F)(F)F)c1ccc(Br)cc1
T/C (endpoint: mean survival time, dose: 12.5 mg/kg/injection, schedule: Q01DX009 (ip), vehicle: other): 107 % of control | T/C (endpoint: mean survival time, dose: 25.0 mg/kg/injection, schedule: Q01DX009 (ip), vehicle: other): 110 % of control | T/C [1]: 105 % of control

CN(C)c1ccc(-c2c3cc(O)c(=O)cc-3oc3cc(O)c(O)cc23)cc1
T/C [12]: 92 % of control | T/C [6]: 95 % of control | T/C [8]: 91 % of control

O=C(O)c1cc(F)c(F)c(F)c1F
T/C (endpoint: mean survival time, dose: 12.5 mg/kg/injection, schedule: Q01DX009 (ip), vehicle: saline with Tween-80): 91 % of control | T/C (endpoint: mean survival time, dose: 25.0 mg/kg/injection, schedule: Q01DX009 (ip), vehicle: saline with Tween-80): 97 % of control | T/C (endpoint: mean survival time, dose: 25.0 mg/kg/injection, schedule: Q04DX003 (ip), vehicle: saline with Tween-80): 96 % of control | T/C [12]: 103 % of control | T/C (endpoint: mean survival time, dose: 50.0 mg/kg/injection, schedule: Q04DX003 (ip), vehicle: saline with Tween-80): 94 % of control

O=C(CN1C(=O)CCC1=O)NCCc1cccc(OCc2ccccc2)c1
T/C [6]: 94 % of control | T/C [7]: 97 % of control | T/C [8]: 89 % of control | T/C [9]: 97 % of control | T/C [10]: 91 % of control | T/C [11]: 97 % of control
